Measured values taken from patent US20250228239A1, “MOLECULES HAVING PESTICIDAL UTILITY, AND INTERMEDIATES, COMPOSITIONS, AND PROCESSES, RELATED THERETO” (priority 2024, published 2025).
Where two headings read alike, the source gives them in different places.

What was measured:
[1] = tested on: Cabbage Looper (Trichoplusia ni, TRIPNI); experiment: Bioassays on Cabbage Looper (CL), 128-well diet tray assay; type: in vivo; conditions: Trichoplusia ni; for mortality at 50 µg/cm2: 168 h, second instar larvae, 50 μg/cm^2 of test molecule on artificial diet, 25° C., five to seven days, average of eight wells, read-out: CL % Control (or Mortality) rating
Outline: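 Test molecule was dissolved in 90:10 acetone-water, applied to artificial diet at 50 μg/cm^2 and allowed to dry. Second-instar larvae were then added, one to five per well, and trays held at 25° C for five to seven days before mortality was scored and averaged.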

[2] = tested on: Beet Armyworm (Spodoptera exigua, LAPHEG); experiment: Bioassays on Beet Armyworm (BAW), 128-well diet tray assay; type: in vivo; conditions: Spodoptera exigua; for mortality at 50 µg/cm2: 168 h, second instar larvae, 50 μg/cm^2 of test molecule on artificial diet, 25° C., five to seven days, average of eight wells, read-out: BAW % Control (or Mortality) rating
Outline: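 Eight diet wells per compound were treated at 50 μg/cm^2 (acetone-water 90:10), dried, then infested with 1–5 second-instar larvae each. After five to seven days at 25 °C under 14:10 photoperiod, mortality was scored and averaged across wells.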

[3] = Cabbage Looper, Table ABC / ABC-DP rating, read-out: CL rating
[4] = Beet Armyworm, Table ABC / ABC-DP rating, read-out: BAW rating
[5] = Table ABC: Biological Results, species CL, read-out: CL
[6] = Table ABC: Biological Results, species BAW, read-out: BAW

SMILES: O=C(NNCc1cc(F)ccc1F)c1cc(NC(=O)[C@H]2[C@H](c3cc(Cl)cc(Cl)c3)C2(Cl)Cl)ccc1Cl (relative stereo) [F2546, trans-2,2-Dichloro-N-(4-chloro-3-(2-(2,5-difluorobenzyl)hydrazine-1-carbonyl)phenyl)-3-(3,5-dichlorophenyl)cyclopropane-1-carboxamide]
- pest or weed control at 50 µg/cm2 [1, 3]: 50 to 100%
- pest or weed control at 50 µg/cm2 [2, 4]: 50 to 100%

SMILES: CC(NNC(=O)c1cc(NC(=O)[C@H]2[C@H](c3cc(Cl)cc(Cl)c3)C2(Cl)Cl)ccc1Cl)c1ccccc1 (relative stereo) [F2548, trans-2,2-Dichloro-N-(4-chloro-3-(2-(1-phenylethyl)hydrazine-1-carbonyl)phenyl)-3-(3,5-dichlorophenyl)cyclopropane-1-carboxamide]
- pest or weed control at 50 µg/cm2 [1, 3]: 50 to 100%
- pest or weed control at 50 µg/cm2 [2, 4]: 50 to 100%

SMILES: O=C(NNc1ccccc1)c1cc(NC(=O)[C@H]2[C@H](c3cc(Cl)cc(Cl)c3)C2(Cl)Cl)ccc1Cl (relative stereo) [F2556, trans-2,2-Dichloro-N-(4-chloro-3-(2-phenylhydrazine-1-carbonyl)phenyl)-3-(3,5-dichlorophenyl)cyclopropane-1-carboxamide]
- pest or weed control at 50 µg/cm2 [1, 3]: 50 to 100%
- pest or weed control at 50 µg/cm2 [2, 4]: 50 to 100%

SMILES: O=C(NNc1ccc(Cl)c(Cl)c1)c1cc(NC(=O)[C@H]2[C@H](c3cc(Cl)cc(Cl)c3)C2(Cl)Cl)ccc1Cl (relative stereo) [F2560, trans-2,2-Dichloro-N-(4-chloro-3-(2-(3,4-dichlorophenyl)hydrazine-1-carbonyl)phenyl)-3-(3,5-dichlorophenyl)cyclopropane-1-carboxamide]
- pest or weed control at 50 µg/cm2 [1, 3]: 50 to 100%
- pest or weed control at 50 µg/cm2 [2, 4]: 50 to 100%

SMILES: CC(C)(C)OC(=O)NNC(=O)c1cc(NC(=O)[C@H]2[C@H](c3cc(Cl)cc(Cl)c3)C2(Cl)Cl)ccc1Cl (relative stereo) [F2566, trans-tert-butyl 2-(2-chloro-5-(2,2-dichloro-3-(3,5-dichlorophenyl)cyclopropane-1-carboxamido)benzoyl)hydrazine-1-carboxylate]
- mortality at 50 µg/cm2 [1]: 50 to 100%
- pest or weed control at 50 µg/cm2 [1, 3]: 50 to 100%
- mortality at 50 µg/cm2 [2]: 50 to 100%
- pest or weed control at 50 µg/cm2 [2, 4]: 50 to 100%

SMILES: O=C(NNC1CCC(F)(F)CC1)c1cc(NC(=O)[C@H]2[C@H](c3cc(Cl)cc(Cl)c3)C2(Cl)Cl)ccc1Cl (relative stereo) [F2569, trans-2,2-dichloro-N-(4-chloro-3-(2-(4,4-difluorocyclohexyl)hydrazine-1-carbonyl)phenyl)-3-(3,5-dichlorophenyl)cyclopropane-1-carboxamide]
- mortality at 50 µg/cm2 [1]: 50 to 100%
- pest or weed control at 50 µg/cm2 [1, 3]: 50 to 100%
- mortality at 50 µg/cm2 [2]: 50 to 100%
- pest or weed control at 50 µg/cm2 [2, 4]: 50 to 100%

SMILES: O=C(NNCc1ccc(F)cc1)c1cc(NC(=O)[C@H]2[C@H](c3cc(Cl)cc(Cl)c3)C2(Cl)Cl)ccc1Cl (relative stereo) [F2570, trans-2,2-dichloro-N-(4-chloro-3-(2-(4-fluorobenzyl)hydrazine-1-carbonyl)phenyl)-3-(3,5-dichlorophenyl)cyclopropane-1-carboxamide]
- mortality at 50 µg/cm2 [1]: 50 to 100%
- pest or weed control at 50 µg/cm2 [1, 3]: 50 to 100%
- mortality at 50 µg/cm2 [2]: 50 to 100%
- pest or weed control at 50 µg/cm2 [2, 4]: 50 to 100%

SMILES: O=C(NNc1ccccc1C(F)(F)F)c1cc(NC(=O)[C@H]2[C@H](c3cc(Cl)cc(Cl)c3)C2(Cl)Cl)ccc1Cl (relative stereo) [F2573, trans-2,2-Dichloro-N-(4-chloro-3-(2-(2-(trifluoromethyl)phenyl)hydrazine-1-carbonyl)phenyl)-3-(3,5-dichlorophenyl)cyclopropane-1-carboxamide]
- mortality at 50 µg/cm2 [1]: 50 to 100%
- pest or weed control at 50 µg/cm2 [1, 3]: 50 to 100%
- mortality at 50 µg/cm2 [2]: 50 to 100%
- pest or weed control at 50 µg/cm2 [2, 4]: 50 to 100%

SMILES: Cc1cccc(N(C)NC(=O)c2cc(NC(=O)[C@H]3[C@H](c4cc(Cl)cc(Cl)c4)C3(Cl)Cl)ccc2Cl)c1 (relative stereo) [F2574, trans-2,2-Dichloro-N-(4-chloro-3-(2-methyl-2-(m-tolyl)hydrazine-1-carbonyl)phenyl)-3-(3,5-dichlorophenyl)cyclopropane-1-carboxamide]
- mortality at 50 µg/cm2 [1]: 50 to 100%
- pest or weed control at 50 µg/cm2 [1, 3]: 50 to 100%
- mortality at 50 µg/cm2 [2]: 50 to 100%
- pest or weed control at 50 µg/cm2 [2, 4]: 50 to 100%

SMILES: Cc1ccc(NNC(=O)c2cc(NC(=O)[C@H]3[C@H](c4cc(Cl)cc(Cl)c4)C3(Cl)Cl)ccc2Cl)cc1 (relative stereo) [F2575, trans-2,2-Dichloro-N-(4-chloro-3-(2-(p-tolyl)hydrazine-1-carbonyl)phenyl)-3-(3,5-dichlorophenyl)cyclopropane-1-carboxamide]
- mortality at 50 µg/cm2 [1]: 50 to 100%
- pest or weed control at 50 µg/cm2 [1, 3]: 50 to 100%
- mortality at 50 µg/cm2 [2]: 50 to 100%
- pest or weed control at 50 µg/cm2 [2, 4]: 50 to 100%

SMILES: O=C(NN=Cc1nccs1)c1cc(NC(=O)[C@H]2[C@H](c3cc(Cl)cc(Cl)c3)C2(Cl)Cl)ccc1Cl (relative stereo) [F3006, trans-2,2-Dichloro-N-(4-chloro-3-(2-(thiazol-2-ylmethylene)hydrazine-1-carbonyl)phenyl)-3-(3,5-dichlorophenyl)cyclopropane-1-carboxamide]
- mortality at 50 µg/cm2 [1]: 50 to 100%
- pest or weed control at 50 µg/cm2 [1, 3]: 50 to 100%
- mortality at 50 µg/cm2 [2]: 50 to 100%
- pest or weed control at 50 µg/cm2 [2, 4]: 50 to 100%

SMILES: O=C(NN=CC1CC1)c1cc(NC(=O)[C@H]2[C@H](c3cc(Cl)cc(Cl)c3)C2(Cl)Cl)ccc1Cl (relative stereo) [F3007, trans-2,2-Dichloro-N-(4-chloro-3-(2-(cyclopropylmethylene)hydrazine-1-carbonyl)phenyl)-3-(3,5-dichlorophenyl)cyclopropane-1-carboxamide]
- mortality at 50 µg/cm2 [1]: 50 to 100%
- pest or weed control at 50 µg/cm2 [1, 3]: 50 to 100%
- mortality at 50 µg/cm2 [2]: 50 to 100%
- pest or weed control at 50 µg/cm2 [2, 4]: 50 to 100%

SMILES: O=C(Nc1ccc(F)cc1)c1cc(NC(=O)[C@H]2[C@H](c3cc(Cl)cc(Cl)c3)C2(Cl)Cl)ccc1F (single isomer, unassigned) [F1374]
- pest or weed control at 50 µg/cm2 [1, 5]: 50 to 100%
- pest or weed control at 50 µg/cm2 [2, 6]: 50 to 100%

SMILES: O=C(Nc1ccc(F)cc1F)c1cc(NC(=O)[C@H]2[C@H](c3cc(Cl)cc(Cl)c3)C2(Cl)Cl)ccc1F (single isomer, unassigned) [F1375]
- pest or weed control at 50 µg/cm2 [1, 5]: 50 to 100%
- pest or weed control at 50 µg/cm2 [2, 6]: 50 to 100%

SMILES: O=C(Nc1c(F)cc(F)cc1F)c1cc(NC(=O)[C@H]2[C@H](c3cc(Cl)cc(Cl)c3)C2(Cl)Cl)ccc1Cl (single isomer, unassigned) [F1377]
- pest or weed control at 50 µg/cm2 [1, 5]: 50 to 100%
- pest or weed control at 50 µg/cm2 [2, 6]: 50 to 100%

SMILES: O=C(Nc1c(F)cc(F)cc1F)c1cc(NC(=O)[C@@H]2[C@@H](c3cc(Cl)cc(Cl)c3)C2(Cl)Cl)ccc1Cl (single isomer, unassigned) [F1378]
- pest or weed control at 50 µg/cm2 [1, 5]: 50 to 100%
- pest or weed control at 50 µg/cm2 [2, 6]: 0 to 50%

SMILES: Nc1cc(F)c(NC(=O)c2cc(NC(=O)[C@H]3[C@H](c4cc(Cl)cc(Cl)c4)C3(Cl)Cl)ccc2Cl)c(F)c1 [F1027, N-(4-Amino-2,6-difluorophenyl)-2-chloro-5-((1R,3R)-2,2-dichloro-3-(3,5-dichlorophenyl)cyclopropane-1-carboxamido)benzamide]
- pest or weed control at 50 µg/cm2 [1, 5]: 50 to 100%
- pest or weed control at 50 µg/cm2 [2, 6]: 50 to 100%

SMILES: Nc1cc(F)c(NC(=O)c2cc(NC(=O)[C@H]3[C@H](c4ccc(Cl)c(Cl)c4)C3(Cl)Cl)ccc2Cl)c(F)c1 [F1028, N-(4-Amino-2,6-difluorophenyl)-2-chloro-5-((1R,3R)-2,2-dichloro-3-(3,4-dichlorophenyl)cyclopropane-1-carboxamido)benzamide]
- pest or weed control at 50 µg/cm2 [1, 5]: 50 to 100%
- pest or weed control at 50 µg/cm2 [2, 6]: 50 to 100%

SMILES: Nc1cc(F)c(NC(=O)c2cc(NC(=O)[C@H]3[C@H](c4cc(Cl)c(Cl)c(Cl)c4)C3(Cl)Cl)ccc2Cl)c(F)c1 [F1029, N-(4-Amino-2,6-difluorophenyl)-2-chloro-5-((1R,3R)-2,2-dichloro-3-(3,4,5-trichlorophenyl)cyclopropane-1-carboxamido)benzamide]
- pest or weed control at 50 µg/cm2 [1, 5]: 50 to 100%
- pest or weed control at 50 µg/cm2 [2, 6]: 50 to 100%

SMILES: Nc1cc(F)c(NC(=O)c2cc(NC(=O)[C@H]3[C@H](c4ccc(F)c(Cl)c4)C3(Cl)Cl)ccc2Cl)c(F)c1 [F1030, N-(4-Amino-2,6-difluorophenyl)-2-chloro-5-((1R,3R)-2,2-dichloro-3-(3-chloro-4-fluorophenyl)cyclopropane-1-carboxamido)benzamide]
- pest or weed control at 50 µg/cm2 [1, 5]: 50 to 100%
- pest or weed control at 50 µg/cm2 [2, 6]: 50 to 100%

SMILES: CN(C(=O)c1cc(NC(=O)[C@H]2[C@H](c3ccc(Cl)c(Cl)c3)C2(Cl)Cl)ccc1Cl)c1ccc(F)c(N)c1F [F1056, N-(3-Amino-2,4-difluorophenyl)-2-chloro-5-((1R,3R)-2,2-dichloro-3-(3,4-dichlorophenyl)cyclopropane-1-carboxamido)-N-methylbenzamide]
- pest or weed control at 50 µg/cm2 [1, 5]: 50 to 100%
- pest or weed control at 50 µg/cm2 [2, 6]: 50 to 100%

SMILES: O=C(Nc1ccc(F)c(NC(=O)C(Cl)(Cl)Cl)c1F)c1cc(NC(=O)[C@H]2[C@H](c3ccc(Cl)c(Cl)c3)C2(Cl)Cl)ccc1Cl [F1063, 2-Chloro-5-((1R,3R)-2,2-dichloro-3-(3,4-dichlorophenyl)cyclopropane-1-carboxamido)-N-(2,4-difluoro-3-(2,2,2-trichloroacetamido)phenyl)benzamide]
- pest or weed control at 50 µg/cm2 [1, 5]: 50 to 100%
- pest or weed control at 50 µg/cm2 [2, 6]: 50 to 100%
